Test results: patent publication US8728442B2, “Method of controlling the growth of microorganisms by a composition containing isolated or in vitro synthesized nitrosoamides” (Bayer CropScience LP, priority 2009, dated 2014)
≈ marks a conversion by molar mass, not a printed value. Read-outs that look alike come from different tables or passages of the source.

How the values were obtained:
[1] = system: Penicillium expansum; experiment: Fungicidal activity, fumigation of Penicillium expansum spore plates in sealed 6 L containers; format: cell-based; conditions: 24 h exposure, further 48 h incubation; for MIC: Penicillium expansum, 24 h
Procedure: Experiments were conducted to determine the fungicidal activity of several compounds of the invention using Penicillium expansum as the test organism.
Plates of potato dextrose agar were streaked with a standard culture of Penicillium expansum spores (0.1 ml of a 2×10^5 cfu/ml) and placed in sealed plastic containers (nominal volume 6 liters). The containers (Rubbermaid) were fitted with a small fan (Radio Shack 12VDC) in the lids to ensure good distribution of the test compounds. The plates were exposed to different volumes (2.5 μl, 5 μl, 10 μl, 20 μl, 40 μl, 80 μl, or 120 μl) of standard solutions (1.0 to 4.0 mg/ml) of tested compounds in ethanol, under ambient conditions. After exposing for 24 h, the plates were removed and incubated for a further 48 h, at ambient temperature, and then monitored for growth of the test organism by visual observation.
The following tables provide summary results of three separate studies to determine the minimum amounts of the compounds needed to produce 100% inhibition of growth of the test organism. Results are expressed as minimal volumes (μl/6 L) and amounts (μg/L) required to produce 100% inhibition.

[2] = system: Staphylococcus aureus (MRSA) (ATCC 33591); experiment: MIC and MBC of Compound 1 and analogs, macrodilution; conditions: for MIC: 19 h; for MBC: 25 h
[3] = system: Enterobacter cloacae (ATCC 13047); experiment: MIC and MBC by Macrodilution Broth Method; format: cell-based
[4] = system: E. coli 0157:H7 (ATCC 43894); experiment: MIC and MBC by Macrodilution Broth Method; format: cell-based; conditions: ATCC43894, Escherichia coli 0157:H7
[5] = system: Listeria monocytogenes (ATCC 13932); experiment: MIC and MBC by Macrodilution Broth Method; format: cell-based
[6] = system: Proteus mirabilis (ATCC 3559); experiment: MIC and MBC by Macrodilution Broth Method; format: cell-based
[7] = system: Klebsiella pneumoniae (ATCC 35657); experiment: MIC and MBC by Macrodilution Broth Method; format: cell-based
[8] = system: Legionella pneumophila (ATCC 33152); experiment: microbe, parasite or virus in culture; format: cell-based
[9] = system: Shigella dysenteriae (ATCC 12021); experiment: MIC and MBC by Macrodilution Broth Method; format: cell-based
[10] = system: Methicillin Resistant Staphylococcus aureus (MRSA) (ATCC 33591); experiment: MIC and MBC by Macrodilution Broth Method; format: cell-based
[11] = system: Bacillus cereus (ATCC 10702); experiment: MIC and MBC by Macrodilution Broth Method; format: cell-based
[12] = system: Streptococcus pyogenes (ATCC 10096); experiment: MIC and MBC by Macrodilution Broth Method; format: cell-based; conditions: ATCC10096, Streptococcus pyrogenes
[13] = system: Corynebacterium renale (ATCC 10848); experiment: MIC and MBC by Macrodilution Broth Method; format: cell-based; conditions: ATCC10848, Corynebacterum renale
[14] = system: Clostridium sporogenes (ATCC 11437); experiment: MIC and MBC by Macrodilution Broth Method; format: cell-based; conditions: ATCC11437, read-out: MIC concentration (ppm)
[15] = Temperature and pH lability (GC-MS of ethanol eluate); format: physicochemical; conditions: high pH (above pH 7)
Procedure: As shown at a standard GC/MS injection temperature of 250° C., N-methyl N-nitroso isobutyramide is not detected as it most likely has broken down into other compounds. Therefore, this compound has never been previously identified.

[16] = system: Pseudomonas aeruginosa PAO1; experiment: Lubbock biofilm model: relative ratio of bacterium by qPCR
[17] = system: Enterococcus faecalis V583; experiment: as above
[18] = system: Staphylococcus aureus Mu50; experiment: as above
[19] = system: Pseudomonas aeruginosa PAO1, Enterococcus faecalis V583 and Staphylococcus aureus Mu50 biofilm; experiment: Lubbock chronic wound biofilm model: biofilm formation and dry weight; conditions: biofilm at 24 hours
[20] = Experiment #5, read-out: Amount for 100% inhibition (μg compound/L air)
[21] = Experiment #1, read-out: Amount for 100% inhibition (μg compound/L air)
[22] = Experiment #2, read-out: Amount for 100% inhibition (μg compound/L air)
[23] = Experiment #3, read-out: Amount for 100% inhibition (μg compound/L air)
[24] = Experiment #4, read-out: Amount for 100% inhibition (μg compound/L air)
[25] = 37° C., 16 to 20 hours, read-out: MIC concentration (ppm)
[26] = read-out: MBC concentration (ppm)
[27] = Experiment #6, read-out: Amount for 100% inhibition (μg compound/L air)
[28] = read-out: Amount for 100% inhibition (μg compound/L air), Experiment #1

## CN(N=O)C(=O)C1CCC1 [Compound 5, N-methyl-N-nitrosocyclobutanecarboxamide]
[1]; [20]
  MIC: 0.0012 µg/mL (≈ 0.00844 µM)

## C=CC(=O)N(C)N=O [drawing 51]
[2]
  MIC: > 50 µg/mL
  MBC: > 50 µg/mL

## COCC(=O)N(C)N=O [drawing 50]
[2]
  MIC: 25 µg/mL
  MBC: > 50 µg/mL

## C/C=C/C(=O)N(C)N=O [drawing 52]
[2]
  MIC: 6.25 µg/mL
  MBC: 25 µg/mL

## CCCC(=O)N(C)N=O [Compound 13, N-methyl-N-nitrosobutyramide]
[1]; [21]
  MIC: 0.0092 µg/mL (≈ 0.0707 µM)
[1]; [22]
  MIC: 0.0071 µg/mL (≈ 0.0546 µM)
[1]; [23]
  MIC: 0.0075 µg/mL (≈ 0.0576 µM)

## CC(C)C(=O)N(C)N=O [Compound 10, N-methyl-N-nitrosisopropanamide]
[1]; Experiment #4
  Amount for 100% inhibition (μg compound/L air): >14.4 μg compound/L air

## CCCCC(=O)N(C)N=O [Compound 21, N-methyl-N-nitrosopentanamide]
[1]; [24]
  MIC: 0.0163 µg/mL (≈ 0.113 µM)

## C=CC(=O)N(C)N=O [Compound 4, N-methyl-N-nitrosoacrylamide]
[1]; [20]
  MIC: 0.0011 µg/mL (≈ 0.00964 µM)

## CC(=O)N(N=O)C1CC1 [Compound 14, N-cyclopropyl-N-nitrosoacetamide]
[1]; [21]
  MIC: 0.0278 µg/mL (≈ 0.217 µM)

## CCCCCC(=O)N(C)N=O [Compound 2, N-methyl-N-nitrosohexanamide]
[1]; [24]
  MIC: 0.0043 µg/mL (≈ 0.0272 µM)

## CC(C)C(=O)N(C)N=O [Compound 1, N-methyl N-nitrosoisobutyramide]
[1]; [21]
  MIC: 0.0045 µg/mL (≈ 0.0346 µM)
[1]; [22]
  MIC: 0.0043 µg/mL (≈ 0.033 µM)
[1]; [23]
  MIC: 0.004 µg/mL (≈ 0.0307 µM)
[1]; [24]
  MIC: 0.0084 µg/mL (≈ 0.0645 µM)
[3]; ATCC13047, 37° C., 16 to 20 hours, read-out: MIC concentration (ppm)
  MIC: 12.5 µg/mL (≈ 96 µM)
[3]; ATCC13047, read-out: MBC concentration (ppm)
  MBC: 12.5 µg/mL (≈ 96 µM)
[4]; [25]
  MIC: 12.5 µg/mL (≈ 96 µM)
[4]; [26]
  MBC: 12.5 µg/mL (≈ 96 µM)
[5]; ATCC13932, 37° C., 16 to 20 hours, read-out: MIC concentration (ppm)
  MIC: 3.13 µg/mL (≈ 24 µM)
[5]; ATCC13932, read-out: MBC concentration (ppm)
  MBC: 12.5 µg/mL (≈ 96 µM)
[6]; ATCC3559, 37° C., 16 to 20 hours, read-out: MIC concentration (ppm)
  MIC: 6.25 µg/mL (≈ 48 µM)
[6]; ATCC3559, read-out: MBC concentration (ppm)
  MBC: 12.5 µg/mL (≈ 96 µM)
[7]; ATCC35657, 37° C., 16 to 20 hours, read-out: MIC concentration (ppm)
  MIC: 12.5 µg/mL (≈ 96 µM)
[7]; ATCC35657, read-out: MBC concentration (ppm)
  MBC: 12.5 µg/mL (≈ 96 µM)
[8]; ATCC33152, read-out: MBC concentration (ppm)
  MBC: 25 µg/mL (≈ 192 µM)
[8]; ATCC33152, read-out: MIC concentration (ppm)
  MIC: 6.25 µg/mL (≈ 48 µM)
[9]; ATCC12021, read-out: MBC concentration (ppm)
  MBC: 12.5 µg/mL (≈ 96 µM)
[9]; ATCC12021, read-out: MIC concentration (ppm)
  MIC: 6.25 µg/mL (≈ 48 µM)
[10]; [26]
  MBC: 12.5 µg/mL (≈ 96 µM)
[10]; read-out: MIC concentration (ppm)
  MIC: 6.25 µg/mL (≈ 48 µM)
[11]; ATCC10702, 37° C., 16 to 20 hours, read-out: MIC concentration (ppm)
  MIC: 6.25 µg/mL (≈ 48 µM)
[11]; ATCC10702, read-out: MBC concentration (ppm)
  MBC: 12.5 µg/mL (≈ 96 µM)
[12]; [25]
  MIC: 6.25 µg/mL (≈ 48 µM)
[12]; [26]
  MBC: 6.25 µg/mL (≈ 48 µM)
[13]; [25]
  MIC: 6.25 µg/mL (≈ 48 µM)
[13]; [26]
  MBC: 12.5 µg/mL (≈ 96 µM)
[14]
  MIC: 25 µg/mL (≈ 192 µM)
[15]
  stability to pH: unstable
[2]
  MIC: 6.25 µg/mL
  MBC: 12.5 µg/mL
[16]; dilution 1:10, 24 hours
  P. aeruginosa relative ratio in biofilm: 34.3% ± 1.2%
[16]; dilution 1:100, 24 hours
  P. aeruginosa relative ratio in biofilm: 46.7% ± 8.0%
[16]; dilution 1:1000, 24 hours
  P. aeruginosa relative ratio in biofilm: 50.5% ± 8.4%
[16]; dilution 1:10000, 24 hours
  P. aeruginosa relative ratio in biofilm: 20.3% ± 0.9%
[17]; dilution 1:10, 24 hours
  E. faecalis relative ratio in biofilm: 65.5% ± 0.6%
[17]; dilution 1:100, 24 hours
  E. faecalis relative ratio in biofilm: 39.5% ± 1.0%
[17]; dilution 1:1000, 24 hours
  E. faecalis relative ratio in biofilm: 34.4% ± 0.2%
[17]; dilution 1:10000, 24 hours
  E. faecalis relative ratio in biofilm: 32.6% ± 0.3%
[18]; dilution 1:10, 24 hours
  S. aureus relative ratio in biofilm: 0.27% ± 0.0%
[18]; dilution 1:100, 24 hours
  S. aureus relative ratio in biofilm: 13.9% ± 0.2%
[18]; dilution 1:1000, 24 hours
  S. aureus relative ratio in biofilm: 15.2% ± 1.6%
[18]; dilution 1:10000, 24 hours
  S. aureus relative ratio in biofilm: 47.2% ± 1.2%
[19]; dilution 1:10
  dry weight mg ± SD: 21.7 ± 3.2 mg
[19]; dilution 1:100
  dry weight mg ± SD: 59 ± 4.4 mg
[19]; dilution 1:1000
  dry weight mg ± SD: 63 ± 5.3 mg
[19]; dilution 1:10000
  dry weight mg ± SD: 79.7 ± 5.5 mg

## C/C=C/C(=O)N(C)N=O [Compound 8, (2E)-N-methyl-N-nitrosobut-2-enamide]
[1]; [20]
  MIC: 0.0075 µg/mL (≈ 0.0585 µM)

## O=NN1CCCCC1=O [Compound 17, 1-nitrosopiperidine-2-one]
[1]; [23]
  MIC: > 0.0036 µg/mL

## CCC(=O)N(C)N=O [drawing 53]
[2]
  MIC: 12.5 µg/mL
  MBC: 25 µg/mL

## COCC(=O)N(C)N=O [Compound 6, 2-methoxy-N-methyl-N-nitrosoacetamide]
[1]; [27]
  MIC: 0.0022 µg/mL (≈ 0.0167 µM)

## CCCN(N=O)C(C)=O [Compound 12, N-nitroso-N-propylacetamide]
[1]; [28]
  MIC: 0.0252 µg/mL (≈ 0.194 µM)

## CCC(C)C(=O)N(C)N=O (stereo not drawn) [Compound 22, N,2-dimethyl-N-nitrosobutanamide]
[1]; [20]
  MIC: > 0.0152 µg/mL

## CCC(=O)N(C)N=O [Compound 20, N-methyl-N-nitrosopropanamide]
[1]; [24]
  MIC: 0.0075 µg/mL (≈ 0.0646 µM)

## CN(N=O)C(=O)C1CC1 [Compound 7, N-methyl-N-nitrosocyclopropanecarboxamide]
[1]; [21]
  MIC: 0.0101 µg/mL (≈ 0.0788 µM)
[1]; [22]
  MIC: 0.01 µg/mL (≈ 0.078 µM)
[1]; [23]
  MIC: 0.0082 µg/mL (≈ 0.064 µM)

## CC(C)CC(=O)N(C)N=O [drawing 55]
[2]
  MIC: 0.78 µg/mL
  MBC: 25 µg/mL

## CC(C)CC(=O)N(C)N=O [Compound 19, N-3-dimethyl-N-nitrosobutanamide]
[1]; Experiment #5
  Amount for 100% inhibition (μg compound/L air): >15.5 μg compound/L air

## CN(N=O)C(=O)CC1CC1 [Compound 3, 2-cyclopropyl-N-methyl-N-nitrosoacetamide]
[1]; [27]
  MIC: 0.005 µg/mL (≈ 0.0352 µM)

## CCCCCCC(=O)N(C)N=O [Compound 9, N-methyl-N-nitrosoheptanamide]
[1]; [24]
  MIC: 0.0075 µg/mL (≈ 0.0435 µM)

## CCN(N=O)C(=O)C(C)C [Compound 11, N-ethyl-N-nitrosoisobutyramide]
[1]; [27]
  MIC: > 0.0147 µg/mL

## CC(=O)N(N=O)C(C)C [Compound 16, N-isopropyl-N-nitrosoacetamide]
[1]; [22]
  MIC: > 0.0806 µg/mL
[1]; [28]
  MIC: 0.025 µg/mL (≈ 0.192 µM)

## O=NN1CCCC1=O [Compound 18, 1-nitrosopyrrolidin-2-one]
[1]; [22]
  MIC: > 0.084 µg/mL
[1]; [27]
  MIC: > 0.0163 µg/mL

## CCCCCCC(=O)N(C)N=O [drawing 54]
[2]
  MIC: 6.25 µg/mL
  MBC: 25 µg/mL
